Assay results reported in patent EP4371976B1, “IONIZABLE LIPIDS AND LIPID NANOPARTICLES CONTAINING THEREOF” (Certest Biotec, S.L., priority 2022, dated 2024).
Where “and” joins values, the source holds several entries; their conditions need not be identical. Identical values can stand only once.

Columns and labels:
[1] = RNA encapsulation efficiency of LNPs by Quant-IT Ribogreen; assay type: physicochemical; conditions: for Encaps. efficiency (%): LNPs with luciferase mRNA, ionizable lipid:non-cationic lipid:sterol:PEG-modified lipid 50:10:38.5:1.5, percentage of RNA entrapped in the LNP; for Encaps. efficiency: Table 8, LNP 50:10:38.5:1.5, luciferase mRNA
Experimental: The mRNA aqueous solution was then carefully added to the ethanol solution, and the resulted solution was homogenized by pipetting up and down for 4-5 times. The resulting LNPs were immediately diluted 1:1 with Tris buffer and dialyzed overnight against Tris buffer containing 15% sucrose. The resulting LNP solution was then collected, and the encapsulated mRNA was assessed by Quant-IT® Ribogreen (Invitrogen R11490) following the manufacturer's instructions.
(§1) The LNP solution was then adjusted to a final concentration of mRNA of 100 µg/ml. Size distribution, polydispersity and Z-potential were measured by dynamic light scattering (DLS) using Malvern Zetasizer Advance Lab Blue Label. RNA encapsulation was assessed by Quant-IT® Ribogreen following the manufacturer's instructions.

[2] = Size distribution, polydispersity and Z-potential of LNPs by dynamic light scattering (Malvern Zetasizer); assay type: physicochemical; conditions: LNPs, standard formulation 50:10:38.5:1.5; DLS
Experimental: as §1

[3] = Apparent pKa of LNPs comprising the ionizable lipid (Table 6); conditions: standard formulation 50:10:38.5:1.5

SMILES	Encaps. efficiency (%) [1] [%]	P.D.I. [2]	Particle size/ Ø (nm) [2] [nm]	Z Potential (± D.E.) [mV] [2] [mV]	Apparent pKa [3]	Encaps. efficiency [1]
CCCCCCCCCCCCOC(=O)CCSCC(CC(=O)NCCCN1CCOCC1)C(=O)OC(CCCCCCCC)CCCCCCCC (stereo not drawn) [VC-LC-0544]	36.86	0.12	140.3	-11.02	6.53	–
CCCCCCCCCCCCC(CCCCCCCCCC)COC(=O)CCSCCC(NC(=O)C(CCCCCC)CCCCCCCC)C(=O)NCCN1CCOCC1 (stereo not drawn) [VC-LC-0407]	60.22	0.1	167.1	-12.36	4.66	–
CCCCCCCCC(CCCCCC)COC(=O)CCSCC(CC(=O)NCCCN1CCOCC1)C(=O)OC(CCCCCCCC)CCCCCCCC (stereo not drawn) [VC-LC-0541]	42.80	0.11	154.7	-6.83	6.39	–
CCCCCCCCC(CCCCCC)C(=O)NC(CCSCCC(=O)OCCCCCCCC(C)C)C(=O)NCC1CCN(C)CC1 (stereo not drawn) [VC-LC-0492]	98.15	0.16	150.9	0.83	7.47	–
CCCCCCCCC(CCCCCC)C(=O)NC(CCSCCC(=O)OCCCCCCCC(C)C)C(=O)NCCN(CC)CC (stereo not drawn) [VC-LC-0475]	52.31	0.13	135	-4.72	6.59	–
CCCCCCCCC(CCCCCCCC)OC(=O)C(CSCCC(=O)OCCCCCC)CC(=O)NCCCn1ccnc1 (stereo not drawn) [VC-LC-0306]	45.62	0.09	184.2	-12.78	5.70	–
CCCCCCCCCCC(CCCCCCCC)C(=O)NC(CCSCCC(=O)OCCCCCC)C(=O)NCC1CCN(C)CC1 (stereo not drawn) [VC-LC-0518]	97.70	0.17	149.1	3.90	6.67	–
CCCCCCCCCCCCCCCCOC(=O)CCSCCC(NC(=O)C(CCCCCC)CCCCCCCC)C(=O)NCCN1CCN(C)CC1 (stereo not drawn) [VC-LC-0185]	70.97	–	–	-1.54	5.85	–
CCCCCCCCC(CCCCCC)COC(=O)CCSCC(CC(=O)NC1CCN(C)CC1)C(=O)OCC(CCCCCC)CCCCCCCC (stereo not drawn) [VC-LC-0525]	59.89	0.18	151	-5.11	6.67	59.9% and 95.6%
CCCCCCCCC(CCCCCC)COC(=O)C(CCSCCC(=O)OCCCCCCCC(C)C)C(=O)NCCCN1CCOCC1 (stereo not drawn) [VC-LC-0607]	49.38	0.17	148.0	-11.81	5.89	–
CCCCCCCCCCCCCCCCCCCCCCOC(=O)CCSCC(CC(=O)NC1CCN(C)CC1)C(=O)OCC(CCCCCC)CCCCCCCC (stereo not drawn) [VC-LC-0533]	98.35	0.19	178.1	5.74	–	–
CCCCCCCCCCCCOC(=O)CCSCCC(NC(=O)C(CCCCCC)CCCCCCCC)C(=O)NCCCN1CCCC1 (stereo not drawn) [VC-LC-0245]	94.64	0.16	177.3	5.96	–	–
CCCCCCCC/C=C\CCCCCCCC(=O)NC(CCSCCC(=O)OCCCCCCCCCCCCCCCC)C(=O)NCCCN(CCO)CCO (stereo not drawn) [VC-LC-0290]	56.36	–	266.4	-22.79	–	–
CCCCCCCCC(CCCCCC)C(=O)NC(CCSCCC(=O)OCC(CC)CCCC)C(=O)NC1CCN(C)CC1 (stereo not drawn) [VC-LC-0212]	83.35	0.26	179	-20.85	–	–
CCCCCCCCOC(=O)CCSCCC(NC(=O)C(CCCCCC)CCCCCCCC)C(=O)NCCN1CCN(C)CC1 (stereo not drawn) [VC-LC-0191]	87.02	0.11	135.2	4.77	–	–
CCCCCCCCC(CCCCCC)C(=O)NC(CCSCCC(=O)OCCCCCCCC(C)C)C(=O)NCCCN1CCOCC1 (stereo not drawn) [VC-LC-0165]	45.16	0.21	181.9	-26.69	–	–
CCCCCCCCCCCCCCCCOC(=O)CCSCCC(NC(=O)C(CCCCCC)CCCCCCCC)C(=O)NCCCN(CCO)CCO (stereo not drawn) [VC-LC-0201]	86.70	–	259.7	2.80	–	–
CCCCCCCCC(CCCCCC)C(=O)NC(CCSCCC(=O)OCC(CC)CCCC)C(=O)NCCCN1CCCC1 (stereo not drawn) [VC-LC-0244]	53.57	0.16	175	1.09	–	–
CCCCCCCCC(CCCCCC)C(=O)NC(CCSCCC(=O)OCCCCCC(C)C)C(=O)NCCCN(C)C (stereo not drawn) [VC-LC-0107]	100.00	–	–	0.00	–	–
CCCCCCCC/C=C\CCCCCCCCOC(=O)CCSCCC(C(=O)NC1CCN(C)CC1)C(=O)OC(CCCCCCCC)CCCCCCCC (stereo not drawn) [VC-LC-0443]	86.01	0.13	181.3	-2.92	–	86.01%
CCCCCCCCOC(=O)CCSCCC(NC(=O)C(CCCCCC)CCCCCCCC)C(=O)NCCCn1ccnc1 (stereo not drawn) [VC-LC-0269]	36.60	0.15	176.7	-10.28	–	–
CCCCCCCCCCCCCOC(=O)CCSCCC(NC(=O)C(CCCCCCCC)CCCCCCCCCC)C(=O)NC1CCN(C)CC1 (stereo not drawn) [VC-LC-0556]	54.53	0.14	156.7	-7.57	–	–
CCCCCCCCCCCCCCCCOC(=O)CCSCCC(NC(=O)C(CCCCCC)CCCCCCCC)C(=O)NCCCN(C)C (stereo not drawn) [VC-LC-0106]	98.70	–	–	0.00	–	–
CCCCCCCCC(CCCCCCCC)OC(=O)C(CCSCCC(=O)OCCCCCC(C)C)C(=O)NCCCn1ccnc1 (stereo not drawn) [VC-LC-0370]	62.48	0.21	134.7	-7.08	–	–
CCCCCCCCCCCCCCCCCCOC(=O)CCSCCC(C(=O)NCCCn1ccnc1)C(=O)OC(CCCCCCCC)CCCCCCCC (stereo not drawn) [VC-LC-0368]	89.08	0.1	140.9	-15.81	–	–
CCCCCCCCCCCCCCCCCCOC(=O)CCSCCC(NC(=O)CCCCCCCCCCCCCCCCC)C(=O)NCCCN1CCOCC1 (stereo not drawn) [VC-LC-0380]	71.74	0.25	170.6	-17.08	–	–
CCCCCCCCC(CCCCCC)C(=O)NC(CCSCCC(=O)OCCCCCC(C)C)C(=O)NCCCN1CCOCC1 (stereo not drawn) [VC-LC-0171]	53.65	0.24	228.8	-23.07	–	–
CCCCCCCC#CCOC(=O)CCSCCC(NC(=O)CCCCCCCCCCCCCCCCC)C(=O)NC1CCN(C)CC1 (stereo not drawn) [VC-LC-0437]	99.92	0.23	152	7.76	–	–
CCCCCCCCC(CCCCCC)C(=O)NC(CCSCCC(=O)OCC(CC)CCCC)C(=O)NCCN1CCN(C)CC1 (stereo not drawn) [VC-LC-0181]	85.48	0.35	206.7	-6.47	–	–
